Experimental findings from EP4660182A1, “NAV1.7- AND/OR NAV1.8-INHIBITING ARYL PYRIDINE COMPOUNDS, PROCESSES FOR THE PREPARATION THEREOF, COMPOSITIONS, USES, METHODS FOR TREATMENT USING SAME, AND KITS” (Eurofarma Laboratórios S.A., priority 2023, dated 2024) are described below.

The structures appear in SMILES notation. Some results are limits rather than exact numbers.

In assay [1] the target is T1, human sodium channels Nav 1.7 (Homo sapiens, UniProt Q15858).
T1 construct: expressed in transfected cells
T1 sequence (Q15858 whole entry): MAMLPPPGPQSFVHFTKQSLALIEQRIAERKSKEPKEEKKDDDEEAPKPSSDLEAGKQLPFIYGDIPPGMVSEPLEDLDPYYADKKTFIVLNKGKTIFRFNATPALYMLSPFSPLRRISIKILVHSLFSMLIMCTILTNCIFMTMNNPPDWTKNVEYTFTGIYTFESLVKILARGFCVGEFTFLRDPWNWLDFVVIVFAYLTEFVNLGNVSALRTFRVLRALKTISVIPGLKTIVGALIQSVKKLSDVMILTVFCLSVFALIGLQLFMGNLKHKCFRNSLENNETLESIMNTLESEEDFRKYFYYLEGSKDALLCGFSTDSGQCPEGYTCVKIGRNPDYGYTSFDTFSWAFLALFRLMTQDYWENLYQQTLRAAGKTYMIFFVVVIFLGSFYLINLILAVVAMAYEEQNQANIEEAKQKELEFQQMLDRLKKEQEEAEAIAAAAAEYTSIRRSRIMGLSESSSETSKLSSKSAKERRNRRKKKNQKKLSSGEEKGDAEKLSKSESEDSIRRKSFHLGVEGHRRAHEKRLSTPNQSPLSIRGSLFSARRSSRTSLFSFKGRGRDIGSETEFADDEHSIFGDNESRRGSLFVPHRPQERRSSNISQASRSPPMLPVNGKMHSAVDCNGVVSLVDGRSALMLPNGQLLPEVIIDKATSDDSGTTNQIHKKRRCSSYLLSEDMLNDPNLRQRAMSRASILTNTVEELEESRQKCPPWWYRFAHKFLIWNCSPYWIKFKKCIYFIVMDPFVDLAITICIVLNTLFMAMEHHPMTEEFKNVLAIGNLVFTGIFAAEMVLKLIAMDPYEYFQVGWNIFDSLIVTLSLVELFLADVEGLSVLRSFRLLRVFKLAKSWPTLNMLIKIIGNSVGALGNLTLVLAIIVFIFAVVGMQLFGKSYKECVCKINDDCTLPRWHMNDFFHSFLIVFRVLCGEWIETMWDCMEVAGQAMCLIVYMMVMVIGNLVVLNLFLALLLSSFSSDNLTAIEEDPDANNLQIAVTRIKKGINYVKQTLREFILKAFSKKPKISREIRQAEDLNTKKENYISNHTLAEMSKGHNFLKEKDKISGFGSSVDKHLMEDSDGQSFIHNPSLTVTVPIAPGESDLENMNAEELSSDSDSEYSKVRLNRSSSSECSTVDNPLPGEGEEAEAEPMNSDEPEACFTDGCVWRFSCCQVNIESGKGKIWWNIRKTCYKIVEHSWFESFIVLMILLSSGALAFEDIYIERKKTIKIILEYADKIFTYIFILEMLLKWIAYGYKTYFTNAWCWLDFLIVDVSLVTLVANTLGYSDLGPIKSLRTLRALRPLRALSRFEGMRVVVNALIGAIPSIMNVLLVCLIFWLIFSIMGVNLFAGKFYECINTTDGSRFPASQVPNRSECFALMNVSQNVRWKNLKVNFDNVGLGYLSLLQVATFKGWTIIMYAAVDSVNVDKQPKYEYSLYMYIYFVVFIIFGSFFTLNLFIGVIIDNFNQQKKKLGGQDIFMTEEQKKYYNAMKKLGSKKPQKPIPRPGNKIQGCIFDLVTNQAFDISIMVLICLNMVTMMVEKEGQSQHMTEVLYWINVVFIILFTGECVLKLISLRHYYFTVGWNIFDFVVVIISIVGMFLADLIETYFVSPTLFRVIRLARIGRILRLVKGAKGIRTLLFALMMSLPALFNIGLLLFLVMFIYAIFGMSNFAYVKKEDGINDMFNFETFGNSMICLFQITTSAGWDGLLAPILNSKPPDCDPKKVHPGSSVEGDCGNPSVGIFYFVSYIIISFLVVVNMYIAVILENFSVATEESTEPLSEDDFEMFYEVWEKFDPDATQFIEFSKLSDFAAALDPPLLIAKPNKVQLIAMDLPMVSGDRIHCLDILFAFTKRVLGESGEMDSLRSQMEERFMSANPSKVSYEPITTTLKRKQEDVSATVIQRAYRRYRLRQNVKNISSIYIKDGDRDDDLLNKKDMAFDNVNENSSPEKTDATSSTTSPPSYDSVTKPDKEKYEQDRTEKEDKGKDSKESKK
Kind of assay: Automated whole-cell voltage-clamp (ScreenPatch 384P) sodium current block, Nav 1.7. It is filed as cell-based. The note with it: CHO cells stably expressing human Nav 1.7; inactivation step -40 mV 8 s, test step 0 mV (TP1A); eight concentrations; exposure at least five minutes; room temperature; read-out: Nav1.7 IC50. The method, then:
(§1) Biological assays were performed on Chinese hamster ovary (CHO) cells that express human sodium channels Nav 1.8 or Nav 1.7 in a stable manner.
(§2) The experimental protocol voltage-clamp using the whole cell configuration was established on the automated ScreenPatch® 384P platform (SP384PE, Nanion Technologies, Livingston, NJ) and the results were recorded with a Nanion 384-well Patch Clamp chip (NPC) (Nanion Technologies, Livingston, NJ).
(§3) Formula I compounds were diluted in eight concentrations in the extracellular solution composed of saline solution, buffered with HEPES (mM): NaCl, 137; KCl, 4; CaCl2, 3,8; MgCl2, 1; HEPES, 10; Glucose, 10; pH 7.4. The […], 50; CsF, 90; MgCl2, 5; EGTA, 5; HEPES, 10; pH 7.2. The duration of exposure of each compound with cells expressing Nav 1.7 or Nav 1.8 was at least five minutes and the assays were performed at room temperature.
(§4) The measurements of the sodium currents of Nav 1.8 and Nav 1.7 were obtained using the voltage protocol described below.
(§5) A holding voltage of -100 mV was established followed by an inactivation voltage step at -40 mV for 8 seconds, followed by a step of -100 mV for 20 ms, followed by a 20 ms step for 10 mV for Nav 1.8 or 0 mV for Nav 1.7 (TP1A) before returning to the holding voltage of -100 mV.
(§6) The protocol was repeated at a frequency of 0.05 Hz and the amplitude of the current was quantified throughout the recording of the TP1A phase. The variation in the amplitude of the peak current was evaluated according to the formula described below, after exposing the cells expressing the channels to each concentration of the different compounds: % Block = (1−(ITP1A,molecule/ITP1A,basal)×100%, [formula] wherein ITP1A,basal and ITP1A,molecule represent the peaks of sodium current input into TP1A before exposure to the compound and in the presence of the compound, respectively.
(§7) Data were obtained by nonlinear regression (nonlinear least squares) with XLfit for Excel (Microsoft, Redmond, WA).
(§8) The compounds were tested in at least one assay to obtain the value of CI50. For compounds that were tested in two or more assays, the results are described as the means of the CI50 values.

Assay [2] addresses T2, human sodium channels Nav 1.8 (Homo sapiens, UniProt Q9Y5Y9).
T2 construct: expressed in transfected cells
Kind of assay: Automated whole-cell voltage-clamp (ScreenPatch 384P) sodium current block, Nav 1.8. The note with it: CHO cells stably expressing human Nav 1.8; inactivation step -40 mV 8 s, test step 10 mV (TP1A); eight concentrations; exposure at least five minutes; room temperature; read-out: Nav1.8 IC50. It is filed as cell-based. The method, then: as §1, §2, §3, §4, §5, §6, §7, §8

T2 sequence (Q9Y5Y9 whole entry): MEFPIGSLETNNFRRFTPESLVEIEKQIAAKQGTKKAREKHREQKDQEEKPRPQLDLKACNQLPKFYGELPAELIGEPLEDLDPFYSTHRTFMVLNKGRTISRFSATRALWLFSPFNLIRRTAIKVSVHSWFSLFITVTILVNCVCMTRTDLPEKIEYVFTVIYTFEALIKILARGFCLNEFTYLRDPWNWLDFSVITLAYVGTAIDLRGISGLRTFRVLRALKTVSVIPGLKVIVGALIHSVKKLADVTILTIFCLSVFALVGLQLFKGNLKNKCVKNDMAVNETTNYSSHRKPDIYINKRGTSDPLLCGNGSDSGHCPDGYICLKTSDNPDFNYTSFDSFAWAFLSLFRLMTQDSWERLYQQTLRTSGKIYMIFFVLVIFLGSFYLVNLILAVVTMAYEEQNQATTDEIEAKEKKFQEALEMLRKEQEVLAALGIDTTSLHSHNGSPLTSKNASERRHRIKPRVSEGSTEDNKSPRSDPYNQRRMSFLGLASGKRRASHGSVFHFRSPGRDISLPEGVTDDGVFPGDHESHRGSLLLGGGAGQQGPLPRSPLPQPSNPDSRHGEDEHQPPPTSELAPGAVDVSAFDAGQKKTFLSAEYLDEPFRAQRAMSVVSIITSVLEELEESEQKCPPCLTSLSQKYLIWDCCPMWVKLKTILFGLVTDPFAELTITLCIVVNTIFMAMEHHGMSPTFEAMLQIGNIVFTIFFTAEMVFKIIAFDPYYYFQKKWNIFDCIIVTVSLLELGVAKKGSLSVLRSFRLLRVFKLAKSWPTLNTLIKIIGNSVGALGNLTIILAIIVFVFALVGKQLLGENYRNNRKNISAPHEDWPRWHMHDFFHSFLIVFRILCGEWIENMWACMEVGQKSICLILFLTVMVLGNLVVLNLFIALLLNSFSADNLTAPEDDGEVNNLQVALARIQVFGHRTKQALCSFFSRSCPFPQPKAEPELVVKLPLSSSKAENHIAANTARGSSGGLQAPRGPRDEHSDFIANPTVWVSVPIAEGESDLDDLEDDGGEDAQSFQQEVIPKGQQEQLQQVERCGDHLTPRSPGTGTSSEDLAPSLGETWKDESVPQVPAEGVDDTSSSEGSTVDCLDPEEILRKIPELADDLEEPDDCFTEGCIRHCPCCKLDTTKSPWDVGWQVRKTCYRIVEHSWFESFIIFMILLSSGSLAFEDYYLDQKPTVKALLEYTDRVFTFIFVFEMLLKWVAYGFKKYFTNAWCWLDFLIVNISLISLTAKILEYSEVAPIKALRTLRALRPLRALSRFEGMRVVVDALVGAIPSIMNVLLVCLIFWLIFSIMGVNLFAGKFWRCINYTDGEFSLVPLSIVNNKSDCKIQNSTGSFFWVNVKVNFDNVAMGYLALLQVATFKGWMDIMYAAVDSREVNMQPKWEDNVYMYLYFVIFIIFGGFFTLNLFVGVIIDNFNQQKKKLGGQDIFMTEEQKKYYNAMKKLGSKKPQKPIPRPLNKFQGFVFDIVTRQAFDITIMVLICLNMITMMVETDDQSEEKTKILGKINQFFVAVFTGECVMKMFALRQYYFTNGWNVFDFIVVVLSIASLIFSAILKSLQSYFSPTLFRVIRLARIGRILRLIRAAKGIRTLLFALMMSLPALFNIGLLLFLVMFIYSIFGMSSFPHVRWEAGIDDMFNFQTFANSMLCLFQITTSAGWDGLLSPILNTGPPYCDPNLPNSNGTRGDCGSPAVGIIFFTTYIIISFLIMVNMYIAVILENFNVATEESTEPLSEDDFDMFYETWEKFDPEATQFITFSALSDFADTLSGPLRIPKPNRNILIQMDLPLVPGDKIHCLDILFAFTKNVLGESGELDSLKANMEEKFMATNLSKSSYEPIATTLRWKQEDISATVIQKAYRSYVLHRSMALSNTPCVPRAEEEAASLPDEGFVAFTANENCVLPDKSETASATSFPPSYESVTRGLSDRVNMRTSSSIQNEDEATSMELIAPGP

What is called IC50 is the concentration needed to halve the response being measured. Take `CCOc1ccc(-c2cncc(C(=O)N/N=C/c3ocnc3C)n2)cn1` [Compound 61, (E)-6-(6-ethoxypyridine-3-yl)-N'-((4-methyloxazole-5-yl)methylene)pyrazine-2-carbohydrazide]: the IC50 in assay [1] and in assay [2] was above 1000 nM each time.
As to `CCOc1ccc(-c2nc(C(=O)N/N=C/c3cc(OC)ccc3F)cnc2N)cn1` [Compound 63, (E)-5-amino-6-(6-ethoxypyridine-3-yl)-N'-(2-fluoro-5-methoxybenzylidene) pyrazine-2-carbohydrazide], the IC50 in assay [1] was above 1000 nM; in assay [2] it was 500 to 1000 nM.
The corresponding values for `CCOc1ccc(-c2cncc(C(=O)N/N=C/c3cc(OC4CCC4)cnc3F)n2)cn1` [Compound 36, (E)-N'-((5-cyclobutoxy-2-fluoropyridine-3-yl)methylene)-6-(6-ethoxypyridine-3-yl)pyrazine-2-carbohydrazide] are above 1000 nM and below 500 nM.
The corresponding values for `COc1ccc(F)c(/C=N/NC(=O)c2cncc(-c3ccc(S(N)(=O)=O)nc3)n2)c1` [Compound 133, (E)-5-(6-(2-(2-fluoro-5-methoxybenzylidene)hydrazine-1-carbonyl)pyrazine-2-yl)pyridine-2-sulfonamide] are above 1000 nM and above 1000 nM.
With `CC(O)c1cncc(/C=N/NC(=O)c2cncc(-c3ccc(OC(F)F)nc3)n2)c1` (stereo not drawn) [Compound 111, (E)-6-(6-(difluoromethoxy)pyridine-3-yl)-N'-((5-(1-hydroxyethyl)pyridine-3-yl)methylene)pyrazine-2-carbohydrazide], the IC50 in assay [1] and in assay [2] was above 1000 nM throughout.
As to `COc1cnc(F)c(/C=N/NC(=O)c2cccc(-c3ccc(OC(F)F)nc3)n2)c1` [Compound 125, (E)-6'-(difluoromethoxy)-N'-((2-fluoro-5-methoxypyridine-3-yl)methylene)-[2,3'-bipyridine]-6-carbohydrazide], the IC50 in assay [1] and in assay [2] was below 500 nM in each case.
Regarding `CCOc1ccc(-c2cncc(C(=O)N/N=C/c3ncoc3C)n2)cn1` [Compound 62, (E)-6-(6-ethoxypyridine-3-yl)-N'-((5-methyloxazole-4-yl)methylene)pyrazine-2-carbohydrazide], the IC50 is above 1000 nM in assay [1] and 500 to 1000 nM in assay [2].
The matching figures for `COc1ccc(F)c(/C=N/NC(=O)c2cncc(-c3ccc(OCC(C)N)nc3)n2)c1` (stereo not drawn) [Compound 136, (E)-6-(6-(2-aminopropoxy)pyridine-3-yl)-N'-(2-fluoro-5-methoxybenzylidene) pyrazine-2-carbohydrazide]: above 1000 nM and above 1000 nM.
The corresponding values for `O=C(N/N=C/c1cc(OC2CC2)ccc1F)c1cncc(-c2ccc(OC3CC3)nc2)n1` [Compound 82, (E)-N'-(5-cyclopropoxy-2-fluorobenzylidene)-6-(6-cyclopropoxypyridine-3-yl)pyrazine-2-carbohydrazide] are below 500 nM and below 500 nM.
As for `CCOc1ccc(-c2cncc(C(=O)N/N=C/c3cc(O)cnc3F)n2)cn1` [Compound 28, (E)-6-(6-ethoxypyridine-3-yl)-N'-((2-fluoro-5-hydroxypyridine-3-yl)methylene)pyrazine-2-carbohydrazide], the results for the IC50 in assay [1] and in assay [2] were above 1000 nM and 500 to 1000 nM, respectively.
The matching figures for `CCOc1ccc(-c2cncc(C(=O)N/N=C/c3cc(OC)ncc3F)n2)cn1` [Compound 8, (E)-6-(6-ethoxypyridine-3-yl)-N'-((5-fluoro-2-methoxypyridine-4-yl)methylene)pyrazine-2-carbohydrazide]: above 1000 nM and 500 to 1000 nM.
The corresponding values for `CC(O)c1ccc(F)c(/C=N/NC(=O)c2cncc(-c3ccc(OC(F)F)nc3)n2)c1` (stereo not drawn) [Compound 110, (E)-6-(6-(difluoromethoxy)pyridine-3-yl)-N'-(2-fluoro-5-(1-hydroxyethyl)benzylidene)pyrazine-2-carbohydrazide] are above 1000 nM and below 500 nM.
The corresponding values for `COc1cnc(F)c(/C=N/NC(=O)c2nccc(-c3ccc(OC(F)F)nc3)n2)c1` [Compound 127, (E)-4-(6-(difluoromethoxy)pyridine-3-yl)-N'-((2-fluoro-5-methoxypyridine-3-yl)methylene)pyrimidine-2-carbohydrazide] are above 1000 nM and 500 to 1000 nM.
In the case of `[2H]C([2H])([2H])COc1ccc(-c2cncc(C(=O)N/N=C/c3cc(OC([2H])([2H])[2H])cnc3F)n2)cn1` [Compound 173, (E)-6-(6-(ethoxy-2,2,2-d3)pyridine-3-yl)-N'-((2-fluoro-5-(methoxy-d3)pyridine-3-yl)methylene)pyrazine-2-carbohydrazide], the values for the IC50 in assay [1] and in assay [2] were above 1000 nM and below 500 nM, respectively.
Regarding `COc1cnc(F)c(/C=N/NC(=O)c2cncc(-c3ccc(OCC4CNC4)nc3)n2)c1` [Compound 143, (E)-6-(6-(azetidin-3-ylmethoxy)pyridine-3-yl)-N'-((2-fluoro-5-methoxypyridine-3-yl)methylene)pyrazine-2-carbohydrazide], the IC50 in assay [1] and in assay [2] was above 1000 nM each time.
As for `COc1ccc(F)c(/C=N/NC(=O)c2cncc(-c3ccc(OCC4CN(C)C4)nc3)n2)c1` [Compound 146, (E)-N'-(2-fluoro-5-methoxybenzylidene)-6-(6-((1-methylazetidine-3-yl)methoxy)pyridine-3-yl)pyrazine-2-carbohydrazide], the IC50 in assay [1] and in assay [2] was above 1000 nM throughout.
Regarding `CCOc1ccc(-c2cncc(C(=O)N/N=C/c3cc(C(=O)O)ccc3F)n2)cn1` [Compound 10, (E)-3-(2-(6-(6-(6-ethoxypyridine-3-yl)pyrazine-2-carbonyl)hydrazinylidene)methyl)-4-fluorobenzoic acid], the IC50 in assay [1] and in assay [2] was above 1000 nM in each case.
Take `CCOc1ccc(-c2cncc(C(=O)N/N=C/c3cc(O)nc(OC)c3)n2)cn1` [Compound 43, (E)-6-(6-ethoxypyridine-3-yl)-N'-((2-hydroxy-6-methoxypyridine-4-yl)methylene) pyrazine-2-carbohydrazide]: the IC50 in assay [1] and in assay [2] was above 1000 nM throughout.
For `O=C(N/N=C/c1ccccn1)c1cncc(-c2ccc(OC(F)(F)F)nc2)n1` [Compound 84, (E)-N'-(pyridine-2-ylmethylene)-6-(6-(trifluoromethoxy)pyridine-3-yl)pyrazine-2-carbohydrazide], the IC50 in assay [1] and in assay [2] was above 1000 nM each time.
Turning to `COc1ccnc(/C=N/NC(=O)c2cncc(-c3ccc(OC(F)(F)F)nc3)n2)c1` [Compound 85, (E)-N'-((4-methoxypyridine-2-yl)methylene)-6-(6-(trifluoromethoxy)pyridine-3-yl)pyrazine-2-carbohydrazide], the IC50 is above 1000 nM in assay [1] and below 500 nM in assay [2].
The corresponding values for `CCOc1ccc(F)c(/C=N/NC(=O)c2cncc(-c3ccc(OC4CC4)nc3)n2)c1` [Compound 80, (E)-6-(6-cyclopropoxypyridine-3-yl)-N'-(5-ethoxy-2-fluorobenzylidene)pyrazine-2-carbohydrazide] are above 1000 nM and below 500 nM.
The corresponding values for `COc1cnc(F)c(/C=N/NC(=O)c2cncc(-c3ccc(OC(F)(F)F)nc3)n2)c1` [Compound 95, (E)-N'-((2-fluoro-5-methoxypyridine-3-yl)methylene)-6-(6-(trifluoromethoxy)pyridine-3-yl)pyrazine-2-carbohydrazide] are above 1000 nM and below 500 nM.
The matching figures for `[2H]C([2H])([2H])Oc1cnc(F)c(/C=N/NC(=O)c2cncc(-c3ccc(OC([2H])([2H])C([2H])([2H])[2H])nc3)n2)c1` [Compound 174, (E)-6-(6-(ethoxy-d5)pyridine-3-yl)-N'-((2-fluoro-5-(methoxy-d3)pyridine-3-yl)methylene)pyrazine-2-carbohydrazide]: above 1000 nM and below 500 nM.
In the case of `COc1ccc(F)c(/C=N/NC(=O)c2cncc(-c3ccc(OCCO)nc3)n2)c1` [Compound 137, (E)-N'-(2-fluoro-5-methoxybenzylidene)-6-(6-(2-hydroxyethoxy)pyridine-3-yl)pyrazine-2-carbohydrazide], the IC50 in assay [1] and in assay [2] was above 1000 nM in each case.
